# According to article PMC5051865, “The Effect of Albumin on MRP2 and BCRP in the Vesicular Transport Assay” (PLoS ONE, 2016):
# Like-named read-outs stand apart in the source and are kept apart here.
# Tests used:
# human MRP2 [1] = target: T1, human MRP2 (Homo sapiens, UniProt Q92887)
# Description: v=Vmax[S]^h/Km^h+[S]^h (2)
# [2] = target: T2, bovine serum albumin (BSA) (Bos taurus, UniProt P02769); assay: Substrate binding to BSA, rapid equilibrium dialysis (RED); format: in vitro ADME; conditions: for fu (± SD): 37°C, 7 h, n = 3
# T2 construct: purchased Sigma-Aldrich (St. Louis, MO)
# T2 sequence (P02769 25-607): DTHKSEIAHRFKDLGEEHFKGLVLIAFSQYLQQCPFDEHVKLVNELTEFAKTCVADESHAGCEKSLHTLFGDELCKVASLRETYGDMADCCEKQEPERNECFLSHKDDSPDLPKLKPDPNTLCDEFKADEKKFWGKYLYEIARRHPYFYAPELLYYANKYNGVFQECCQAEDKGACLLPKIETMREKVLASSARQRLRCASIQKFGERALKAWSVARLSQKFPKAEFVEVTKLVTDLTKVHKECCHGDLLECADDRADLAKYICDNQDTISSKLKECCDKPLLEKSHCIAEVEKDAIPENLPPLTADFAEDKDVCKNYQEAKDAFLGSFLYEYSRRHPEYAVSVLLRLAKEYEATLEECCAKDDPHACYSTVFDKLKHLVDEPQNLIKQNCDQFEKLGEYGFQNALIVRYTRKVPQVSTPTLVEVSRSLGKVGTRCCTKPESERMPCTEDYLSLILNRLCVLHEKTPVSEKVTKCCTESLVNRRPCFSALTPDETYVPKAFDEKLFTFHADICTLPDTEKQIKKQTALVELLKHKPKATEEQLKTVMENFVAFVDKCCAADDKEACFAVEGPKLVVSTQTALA
# Description: The fraction of unbound substrate in the presence of BSA was studied with the rapid equilibrium dialysis (RED) device (Thermo Scientific, Waltham, MA). In the RED system, two chambers in a well are separated with dialysis membrane. The transporter substrate (CDCF, E217βG or LY) was placed in the donor chamber in assay buffer with control membrane vesicles in the presence or absence of BSA to mimic the VT assay conditions. The final concentrations of BSA was 0.1% or 1.0%. Plain assay buffer was pipetted into the receiver chambers of all wells until the liquid level of both chambers was equal. […] Samples were incubated at 37°C on an orbital shaker. After 7 hour incubation, a small aliquot was collected from each receiver chamber for analysis. The relative fraction of unbound substrate (fu) was calculated as the ratio of concentrations in the receiver chambers from the samples with and without BSA.
# Acetonitrile and phosphate buffers were used as mobile phase and flow rate was 0.5 ml/min.
# UGT2A1 = tested on: UGT2A1; parameters: method as in PMID 23372764; conditions: cited from earlier work
# UGT1A7 = tested on: UGT1A7; parameters: method as in PMID 23372764; conditions: cited from earlier work
# UGT2B7 = conditions: cited from earlier work
# BCRP [3] = tested on: BCRP; parameters: method as in PMID 24342797; conditions: sandwich-cultured hepatocytes, oleic acid > 1 mM; cited from earlier work
# human BCRP [4] = target: T3, human BCRP (Homo sapiens, UniProt Q9UNQ0); assay: Inhibition of LY uptake into BCRP vesicles by oleic acid (VT assay)
# T3 sequence (Q9UNQ0 1-655): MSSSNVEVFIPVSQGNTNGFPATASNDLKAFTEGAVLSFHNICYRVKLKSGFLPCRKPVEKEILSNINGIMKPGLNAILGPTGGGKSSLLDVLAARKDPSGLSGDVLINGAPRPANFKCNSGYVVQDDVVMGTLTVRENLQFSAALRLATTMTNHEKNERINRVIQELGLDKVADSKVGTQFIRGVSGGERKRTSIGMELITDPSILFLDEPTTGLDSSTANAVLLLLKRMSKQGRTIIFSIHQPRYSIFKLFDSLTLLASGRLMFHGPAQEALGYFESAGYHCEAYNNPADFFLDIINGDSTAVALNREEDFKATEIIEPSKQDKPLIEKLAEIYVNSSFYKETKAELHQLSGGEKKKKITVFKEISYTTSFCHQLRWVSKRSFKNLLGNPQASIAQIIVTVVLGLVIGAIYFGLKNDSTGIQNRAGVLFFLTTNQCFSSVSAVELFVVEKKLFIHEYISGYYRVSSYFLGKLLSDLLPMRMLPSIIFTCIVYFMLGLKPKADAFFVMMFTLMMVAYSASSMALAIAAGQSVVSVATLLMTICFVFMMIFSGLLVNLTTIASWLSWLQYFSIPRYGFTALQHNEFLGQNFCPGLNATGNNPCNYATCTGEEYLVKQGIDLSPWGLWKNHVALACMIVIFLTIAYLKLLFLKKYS
# Description: (§1) The modulation of MRP2 and BCRP uptake by fatty acid oleic acid was also studied with the VT assay. The assay was performed as above, but oleic acid was present at various concentrations. The probe concentration in these studies was 5 μM for CDCF and 50 μM for LY. Plain vehicle (70% ethanol) was used as a control.
# (§2) The oleic acid concentration required for 50% inhibition (IC50), was calculated from the concentration-response data using four parameter logistic regression, Response=Responsemin+Responsemax−Responsemin/1+([I]/IC50)^h (3) where response is the control normalized ATP-dependent uptake (%), Responsemin and Responsemax represent the plateaus corresponding to minimal and maximal normalized uptake (%), [I] is the concentration of inhibitor (μM), IC50 is the inhibitor concentration required for a response half-way between minimal and maximal response (μM) and h is the Hill coefficient. The Responsemin term was constrained to be larger than zero, where zero indicates full abolishment of uptake.
# BCRP [5] = tested on: BCRP; parameters: method as in PMID 22819932; conditions: Caco-2 cells, oleic acid > 1 mM; cited from earlier work
# human MRP2 [6] = target: T1, human MRP2; assay: Inhibition of CDCF uptake into MRP2 vesicles by oleic acid (VT assay); conditions: 5 μM CDCF
# Description: as §1, §2
# [7] = tested on: CYPs, human liver microsomes; parameters: method as in PMID 18256202, PMID 21305272; conditions: cited from earlier work
# human BCRP [8] = target: T3, human BCRP; conditions: BCRP vesicles; for increase in maximal LY uptake by BCRP: 0.1% BSA vs no BSA; for Km: cholesterol loaded, best fit value (± standard error)
# Description: Sf9 cells were cultured in suspension in HyQ SFX-Insect MP medium (Thermo Fisher Scientific, Waltham, MA) supplemented with 5% fetal bovine serum. Cells were infected with recombinant baculovirus-DNA and harvested and washed with phosphate buffered saline (PBS) approximately 60 hours after infection. Membranes were prepared from the cells using a modification of the Chu et al. [30] method as described in detail in [29]. To form the vesicles, the suspension was passed 10 times through a LIPEX™ Extruder (Northern Lipids Inc., Burnaby, BC, Canada) or 20 times through a 27 gauge needle. Protein concentration was measured using the Bio-Rad protein assay (Bio-Rad Laboratories Inc., Hercules, CA). Vesicles were stored at -75°C at protein concentrations of 3.5–5 mg/ml.
# To improve the dynamic range of the assay, BCRP membranes were loaded with cholesterol similarly to Telbisz et al. [31], by incubating the membranes on ice for 20 minutes in the presence of the water-soluble cholesterol complex at a total concentration of 2.5 mM cholesterol. Excess of the complex was removed by diluting the mixture and centrifugation at 100 000 g at + 4°C for 1 h 15 min. The remaining membrane pellet was resuspended in membrane buffer (50 mM Tris–HCl pH 7.0, 50 mM mannitol, 2 mM EGTA). The resulting cholesterol concentration in the vesicles was roughly 100 μg/mg total protein as measured using the Amplex Red Cholesterol kit (Life Technologies, Carlsbad, CA).
# The assay was carried out as a modification of the PREDIVEZ™ Vesicular Transport Kit protocol (SOLVO Biotechnology, Szeged, Hungary). In short, vesicle stocks were thawed and diluted with assay buffer (40 mM MOPS–Tris pH 7.0, 60 mM KCl, 6 mM MgCl2). The substrate at various concentrations was added subsequently with 0.1% or 1.0% BSA (w/v), or an equivalent volume of deionized water for the control. […] The well plate was preincubated at 37°C for 5–10 minutes after which half of the samples were treated with prewarmed plain assay buffer (non-ATP control), and the other half with prewarmed Mg-ATP-solution (final concentration 4 mM). […] Transport was terminated with ice cold washing buffer (40 mM MOPS-Tris pH 7.0 and 70 mM KCl). Samples were quickly transferred to the MultiScreenHTS-FB Plate Glass fiber 1.0 μm / 0.65 μm Durapore filter plate (Millipore, Molsheim, France). Wells were immediately washed five times with 200 μl washing buffer and dried. 0.1 M sodium hydroxide was used to elute LY and CDCF, which were detected by fluorescence measurement.
# ATP-dependent transport was calculated as the difference between uptake in the presence and absence of ATP. All assays were performed in triplicates on a 96-well plate. Curve fitting to the data was performed with GraphPad Prism 6.04 (GraphPad Software Inc., La Jolla, CA). Substrate data was fitted with the Michaelis-Menten equation v=Vmax[S]/Km+[S] (1) where v is the velocity of ATP-dependent transport, Vmax is the maximal transport velocity, [S] is the substrate concentration and Km is the Michaelis-Menten constant.
# [9] = MRP2 vesicles, 0.1% BSA vs no BSA
# T1 sequence (Q92887 whole entry): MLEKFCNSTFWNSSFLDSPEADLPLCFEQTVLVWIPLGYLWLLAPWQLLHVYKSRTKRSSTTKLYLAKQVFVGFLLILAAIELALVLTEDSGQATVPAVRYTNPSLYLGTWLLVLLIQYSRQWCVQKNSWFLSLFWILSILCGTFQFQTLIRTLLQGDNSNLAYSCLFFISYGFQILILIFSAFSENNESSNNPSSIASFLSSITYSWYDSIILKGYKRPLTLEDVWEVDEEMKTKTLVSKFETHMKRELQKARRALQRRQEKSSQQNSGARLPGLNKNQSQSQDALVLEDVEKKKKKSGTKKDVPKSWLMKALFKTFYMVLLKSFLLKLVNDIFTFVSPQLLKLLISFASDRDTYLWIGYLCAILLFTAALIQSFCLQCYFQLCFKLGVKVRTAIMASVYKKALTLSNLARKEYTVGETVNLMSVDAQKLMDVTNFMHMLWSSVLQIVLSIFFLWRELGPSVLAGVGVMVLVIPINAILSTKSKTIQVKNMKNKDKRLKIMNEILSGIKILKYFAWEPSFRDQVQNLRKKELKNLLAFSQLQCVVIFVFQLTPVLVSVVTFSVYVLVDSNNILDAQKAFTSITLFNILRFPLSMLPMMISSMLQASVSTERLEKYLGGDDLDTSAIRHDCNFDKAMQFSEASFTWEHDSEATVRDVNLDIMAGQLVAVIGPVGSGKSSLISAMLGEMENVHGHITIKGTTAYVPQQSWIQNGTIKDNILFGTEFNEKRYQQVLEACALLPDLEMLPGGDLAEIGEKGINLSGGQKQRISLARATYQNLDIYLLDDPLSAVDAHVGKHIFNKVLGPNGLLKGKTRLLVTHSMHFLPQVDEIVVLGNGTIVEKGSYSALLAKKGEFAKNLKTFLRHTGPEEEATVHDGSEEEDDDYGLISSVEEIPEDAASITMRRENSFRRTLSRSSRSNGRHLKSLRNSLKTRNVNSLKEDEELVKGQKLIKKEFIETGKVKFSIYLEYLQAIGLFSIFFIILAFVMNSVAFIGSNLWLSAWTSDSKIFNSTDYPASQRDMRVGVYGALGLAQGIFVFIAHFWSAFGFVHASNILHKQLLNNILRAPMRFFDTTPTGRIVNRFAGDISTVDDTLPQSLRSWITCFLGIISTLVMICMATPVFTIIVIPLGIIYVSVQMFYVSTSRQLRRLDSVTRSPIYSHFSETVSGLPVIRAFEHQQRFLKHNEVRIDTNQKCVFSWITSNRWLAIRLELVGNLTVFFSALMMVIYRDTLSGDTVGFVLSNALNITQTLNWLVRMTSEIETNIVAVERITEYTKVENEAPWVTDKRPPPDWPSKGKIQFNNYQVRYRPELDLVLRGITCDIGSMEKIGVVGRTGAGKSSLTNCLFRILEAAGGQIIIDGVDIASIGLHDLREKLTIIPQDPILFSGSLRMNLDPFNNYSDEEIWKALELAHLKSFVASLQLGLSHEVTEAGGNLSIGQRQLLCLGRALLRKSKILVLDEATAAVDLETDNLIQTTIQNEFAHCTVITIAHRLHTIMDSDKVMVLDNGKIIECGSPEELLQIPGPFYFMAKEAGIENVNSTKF
molecule,measurement,setting,value
"5(6)-carboxy-2’,7’-dichlorofluorescein [CDCF]",increase of Vmax of uptake into MRP2 vesicles,human MRP2 [1]; 0.1% BSA vs no BSA,2 fold
same,increase of Km by BSA,human MRP2 [1]; [9],~63%
same,increase of Vmax by BSA,human MRP2 [1]; [9],roughly 110%
same,Vmax in the presence of 0.1% BSA,"human MRP2 [1]; MRP2 vesicles, Vmax in the absence of BSA set at 100%",210.4 (± 21.1) %
same,average fu,"[2]; 0.1% BSA, average over concentrations",0.94
same,fu (± SD),"[2]; 0.1% BSA, substrate 1 μM",0.92 (± 0.02)
same,fu (± SD),"[2]; 0.1% BSA, substrate 5 μM",0.94 (± 0.02)
same,fu (± SD),"[2]; 0.1% BSA, substrate 50 μM",0.96 (± 0.01)
same,fu (± SD),"[2]; 1.0% BSA, substrate 5 μM",0.43 (± 0.02)
same,fu (± SD),"[2]; 1.0% BSA, substrate 50 μM",0.53 (± 0.02)
same,fu (± SD),"[2]; 1.0% BSA, substrate 200 μM",0.73 (± 0.03)
Oc1ccc2cc[nH]c2c1 [6-hydroxyindole],decrease in Km caused by albumin,UGT2A1,> 20 fold
C[C@]12CC[C@@H]3c4ccc(O)cc4CC[C@H]3[C@@H]1CC[C@@H]2O[C@@H]1O[C@H](C(=O)O)[C@@H](O)[C@H](O)[C@H]1O [E217βG],increase of Km by BSA,human MRP2 [1]; [9],36%
same,fu (± SD),"[2]; 0.1% BSA, substrate 15 μM",0.96 (± 0.04)
same,fu (± SD),"[2]; 0.1% BSA, substrate 50 μM",1.00 (± 0.03)
same,fu (± SD),"[2]; 0.1% BSA, substrate 150 μM",0.98 (± 0.04)
CCN(CC)C(=O)/C(C#N)=C/c1cc(O)c(O)c([N+](=O)[O-])c1 [entacapone],increase in Vmax caused by albumin,UGT1A7,up to 7 fold
Nc1nnc(-c2cccc(Cl)c2Cl)c(N)n1 [lamotrigine],increase in affinity caused by albumin,UGT2B7,7 fold
CCCCCCCC/C=C\CCCCCCCC(=O)O [oleic acid],effect on BCRP-mediated transport of rosuvastatin,BCRP [3],decrease BCRP-mediated transport
same,IC50,human BCRP [4],28.2 µM
same,effect on BCRP-mediated transport of mitoxantrone,BCRP [5],decrease BCRP-mediated transport of mitoxantrone
same,effect on substrate uptake,human MRP2 [6],decreased the uptake of substrates
CC(=O)O[C@H]1C(=O)[C@@]2(C)[C@H]([C@H](OC(=O)c3ccccc3)[C@]3(O)C[C@H](OC(=O)[C@H](O)[C@@H](NC(=O)c4ccccc4)c4ccccc4)C(C)=C1C3(C)C)[C@]1(OC(C)=O)CO[C@@H]1C[C@@H]2O [paclitaxel],decrease in Km of hydroxylation caused by albumin,[7],3 fold
O=C1NC(=O)C(c2ccccc2)(c2ccccc2)N1 [phenytoin],decrease in Km of hydroxylation caused by albumin,[7],4 fold
Cc1cn([C@H]2C[C@H](N=[N+]=[N-])[C@@H](CO)O2)c(=O)[nH]c1=O [zidovudine],increase in affinity caused by albumin,UGT2B7,10 fold
Lucifer yellow [LY],fu (± SD),"[2]; 0.1% BSA, substrate 20 μM",0.98 (± 0.01)
same,fu (± SD),"[2]; 0.1% BSA, substrate 200 μM",0.98 (± 0.03)
same,increase in maximal LY uptake by BCRP,human BCRP [8],28%
same,increase in maximal LY uptake by BCRP,human BCRP [8]; listed as Lucifer yellow,30%
same,Vmax in the presence of 0.1% BSA,human BCRP [8]; Vmax in the absence of BSA set at 100%,127.5 (± 6.2) %
same,Km,"human BCRP [8]; read-out: Km with 0.1% BSA, 0.1% BSA",33.5 µM
same,Km,human BCRP [8]; read-out: Km without BSA,31.2 µM
